Legend:
[1] = xn = mol fraction of the nth substance listed; details: 101 kPa, Liquid, Vibrating tube method
[2] = Liquid; for speed of sound: Sing-around technique in a fixed-path interferometer; for mass density: Vibrating tube method
[3] = refractive index (Na D-line) (dimensionless); details: 298.15 K; 101.33 kPa; Liquid; Standard Abbe refractometry

CN(C)C=O [dimethylformamide] + CCCCCCCCCCO
[1], x1 = 1
Details	mass density [kg/m3]
298.15 K	944.29
303.15 K	939.047
308.15 K	934.721
313.15 K	929.478

CCCCCCCCCO [nonan-1-ol]
[2]
Details	mass density, 298.15 K [kg/m3]	mass density, 303.15 K [kg/m3]	mass density, 308.15 K [kg/m3]	mass density, 313.15 K [kg/m3]	speed of sound, 298.15 K [m/s]
101 kPa	–	821.044	817.582	814.098	–
101.33 kPa	824.478	–	–	–	1365.5

Details	refractive index
[3]	1.4319

CCCCCCCCCCO [decan-1-ol] + CN(C)C=O
mass density [kg/m3], [1]
Details	x2 = 0	x2 = 0.2361	x2 = 0.4193	x2 = 0.5688	x2 = 0.6724	x2 = 0.7496	x2 = 0.8185	x2 = 0.8748	x2 = 0.923	x2 = 0.9632
298.15 K	826.562	838.6	851.13	864.685	876.794	887.827	899.61	910.986	922.298	933.094
303.15 K	822.853	834.589	846.845	860.269	872.216	883.031	894.603	905.795	916.997	927.772
308.15 K	819.427	830.903	843.033	856.394	868.282	879.008	890.399	901.448	912.559	923.333
313.15 K	816.383	827.267	839.221	852.343	863.94	874.443	885.574	896.397	907.34	918.051

CN(C)C=O [dimethylformamide] + CCCCCCCCO
[1], x1 = 1
Details	mass density [kg/m3]
298.15 K	944.29
303.15 K	939.047
308.15 K	934.721
313.15 K	929.478

CCCCCCCCO [octan-1-ol]
[2]
Details	mass density, 298.15 K [kg/m3]	mass density, 303.15 K [kg/m3]	mass density, 308.15 K [kg/m3]	mass density, 313.15 K [kg/m3]	speed of sound, 298.15 K [m/s]
101 kPa	–	818.209	814.742	810.629	–
101.33 kPa	821.222	–	–	–	1347.8

Details	refractive index
[3]	1.4273

CCCCCCCCO [octan-1-ol] + CN(C)C=O
mass density [kg/m3], [1]
Details	x2 = 0	x2 = 0.2198	x2 = 0.3728	x2 = 0.5208	x2 = 0.6277	x2 = 0.7118	x2 = 0.7877	x2 = 0.8519	x2 = 0.9085	x2 = 0.9556
298.15 K	821.222	835.186	847.253	861.646	874.238	885.914	898.138	909.952	921.843	932.914
303.15 K	818.209	831.811	843.584	857.568	869.964	881.458	893.435	905.109	916.796	927.592
308.15 K	814.742	828.086	839.752	853.623	865.852	877.239	889.113	900.709	912.287	923.224
313.15 K	810.629	823.708	835.263	849.056	861.125	872.405	884.137	895.506	907.01	917.847

CCCCCCCCCO [nonan-1-ol] + CN(C)C=O
mass density [kg/m3], [1]
Details	x2 = 0	x2 = 0.2201	x2 = 0.3969	x2 = 0.5458	x2 = 0.6515	x2 = 0.7321	x2 = 0.8042	x2 = 0.8644	x2 = 0.9168	x2 = 0.9596
298.15 K	824.478	836.826	849.646	863.512	875.893	887.234	899.18	910.842	922.441	933.098
303.15 K	821.044	833.085	845.647	859.175	871.335	882.498	894.281	905.742	917.225	927.834
308.15 K	817.582	829.399	841.793	855.283	867.284	878.301	889.932	901.314	912.742	923.379
313.15 K	814.098	825.49	837.685	851.074	862.916	873.711	885.08	896.217	907.487	918.072

CCCCCCCCCCO [decan-1-ol]
[2]
Details	mass density, 298.15 K [kg/m3]	mass density, 303.15 K [kg/m3]	mass density, 308.15 K [kg/m3]	mass density, 313.15 K [kg/m3]	speed of sound, 298.15 K [m/s]
101 kPa	–	822.853	819.427	816.383	–
101.33 kPa	826.562	–	–	–	1380

Details	refractive index
[3]	1.4348

CN(C)C=O [dimethylformamide]
[2]
Details	mass density, 298.15 K [kg/m3]	mass density, 303.15 K [kg/m3]	mass density, 308.15 K [kg/m3]	mass density, 313.15 K [kg/m3]	speed of sound, 298.15 K [m/s]
101 kPa	–	939.047	934.721	929.478	–
101.33 kPa	944.29	–	–	–	1457.7

Details	refractive index
[3]	1.428

CN(C)C=O [dimethylformamide] + CCCCCCCCCO
[1], x1 = 1
Details	mass density [kg/m3]
298.15 K	944.29
303.15 K	939.047
308.15 K	934.721
313.15 K	929.478
